In experiment [1] the target is T1, human adrenergic-α2C receptor (Homo sapiens, UniProt P18825).
T1 construct: expressed in transfected cells; host or cells: CHO cells, stably transfected; membranes
T1 sequence (P18825 1-462): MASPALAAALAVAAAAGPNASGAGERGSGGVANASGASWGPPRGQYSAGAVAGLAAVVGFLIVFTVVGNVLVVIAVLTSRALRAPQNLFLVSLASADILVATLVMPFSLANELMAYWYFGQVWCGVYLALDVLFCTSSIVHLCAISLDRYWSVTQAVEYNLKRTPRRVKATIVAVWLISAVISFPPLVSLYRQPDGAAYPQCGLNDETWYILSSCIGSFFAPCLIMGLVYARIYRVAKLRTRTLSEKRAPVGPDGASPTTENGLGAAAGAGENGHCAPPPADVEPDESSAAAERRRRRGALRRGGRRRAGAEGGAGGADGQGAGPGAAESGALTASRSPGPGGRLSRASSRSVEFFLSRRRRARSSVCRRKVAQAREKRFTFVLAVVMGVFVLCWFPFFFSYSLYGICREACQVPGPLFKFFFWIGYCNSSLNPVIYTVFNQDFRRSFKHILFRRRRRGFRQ
Nature of the experiment: Radioligand binding experiment for α2C-adrenoceptor ([3H]raulwolscine, CHO cell membranes). The conditions noted are these: [3H]raulwolscine 1 nM, membranes of CHO cells transfected with human α2C receptor; read-out: h-α2C pIC50 (converted). The protocol: (§1) The interaction of a compound of Formula (I) with α2C-adrenoceptor receptors was assessed in in vitro radioligand binding experiments. In general, a low concentration of a radioligand with a high binding affinity for a particular receptor or transporter is incubated with a sample of a tissue preparation enriched in a particular receptor or transporter or with a preparation of cells expressing cloned human receptors in a buffered medium. During the incubation, the radioligand binds to the receptor or transporter. When equilibrium of binding is reached, the receptor bound radioactivity is separated from the non-bound radioactivity, and the receptor- or transporter-bound activity is counted. The interaction of the test compounds with the receptor is assessed in competition binding experiments. Various concentrations of the test compound are added to the incubation mixture containing the receptor- or transporter preparation and the radioligand. The test compound in proportion to its binding affinity and its concentration inhibits binding of the radioligand. The radioligand used for hα2A and hα2C receptor binding was [^3H]-raulwolscine.
(§2) CHO cells, stabile transfected with human adrenergic-α2A and α2C receptor cDNA, were cultured in Dulbecco's Modified Eagle's Medium (DMEM)/Nutrient mixture Ham's F12 (ratio 1:1) (Gibco, Gent-Belgium) supplemented with 10% heat inactivated fetal calf serum (Life Technologies, Merelbeke-Belgium) and antibiotics (100 IU/ml penicillin G, 100 μg/ml streptomycin sulphate, 110 μg/ml pyruvic acid and 100 μg/ml L-glutamine). One day before collection, cells were induced with 5 mM sodiumbutyrate. Upon 80-90% of confluence, cells were scraped in phosphate buffered saline without Ca^2+ and Mg^2+ and collected by centrifugation at 1500×g for 10 minutes. The cells were homogenised in Tris-HCl 50 mM using an Ultraturrax homogenizer and centrifuged for 10 minutes at 23,500×g. The pellet was washed once by resuspension and rehomogenization and the final pellet was resuspended in Tris-HCl, divided in 1 ml aliquots and stored at −70° C.
(§3) Membranes were thawed and re-homogenized in incubation buffer (glycylglycine 25 mM, pH 8.0). […] Filters were rinsed extensively with ice-cold rinsing buffer (Tris-HCl 50 mM pH 7.4). Filter-bound radioactivity was determined by scintillation counting in a Topcount (Packard, Meriden, Conn.) and results were expressed as counts per minute (cpm). Non-specific binding was determined in the presence of 1 μM oxymetazoline for the hα2A receptor and 1 μM spiroxatrine for hα2C receptors.
(§4) Data from assays in the presence of compound were calculated as a percentage of total binding measured in the absence of test compound. Inhibition curves, plotting percent of total binding versus the log value of the concentration of the test compound, were automatically generated, and sigmoidal inhibition curves were fitted using non-linear regression. The pIC50 values of test compounds were derived from individual curves.

In a further experiment the target is T2, 5HT-Transporter (Homo sapiens, UniProt P31645).
T2 construct: Human platelet membranes (Oceanix Biosciences Corporation, Hanover, Md., USA) were thawed; tissue Oceanix Biosciences Corporation; host or cells: human platelet membranes
Nature of the experiment: Binding experiment for the 5HT-transporter ([3H]paroxetine, human platelet membranes). The protocol: as §1
Human platelet membranes (Oceanix Biosciences Corporation, Hanover, Md., USA) were thawed, diluted in buffer (Tris-HCl 50 mM, 120 mM NaCl and 5 mM KCl) and quickly (max 3 s) homogenised with an Ultraturrax homogenizer. […] Incubation was stopped by rapid filtration of the incubation mixture over GF/B filters, pre-wetted with 0.1% polyethyleneamine, using a Filtermate196 harvester (Packard, Meriden, Conn.). Filters were rinsed extensively with ice-cold buffer and radioactivity on the filters was counted in a Topcount liquid scintillation counter (Packard, Meriden, Conn.). Data were expressed as cpm. Imipramine (at 1 μM final concentration) was used to determine the non-specific binding.
as §4

Experiment [2] addresses T3, human adrenergic-α2A receptor (Homo sapiens, UniProt P08913).
T3 construct: expressed in transfected cells; host or cells: CHO cells, stably transfected; membranes
T3 sequence (P08913 1-465): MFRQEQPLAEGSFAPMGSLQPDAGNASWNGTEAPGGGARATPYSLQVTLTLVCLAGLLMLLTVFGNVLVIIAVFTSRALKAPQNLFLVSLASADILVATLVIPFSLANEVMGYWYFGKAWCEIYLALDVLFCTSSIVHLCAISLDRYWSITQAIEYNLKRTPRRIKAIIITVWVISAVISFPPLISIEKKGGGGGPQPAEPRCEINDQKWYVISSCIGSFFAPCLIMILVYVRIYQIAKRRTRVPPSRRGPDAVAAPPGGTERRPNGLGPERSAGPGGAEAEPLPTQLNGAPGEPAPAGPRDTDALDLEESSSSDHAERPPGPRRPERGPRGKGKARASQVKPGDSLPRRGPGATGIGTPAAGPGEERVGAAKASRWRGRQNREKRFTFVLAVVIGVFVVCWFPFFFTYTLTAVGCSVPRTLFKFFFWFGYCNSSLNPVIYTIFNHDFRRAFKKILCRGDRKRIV
Nature of the experiment: Radioligand binding experiment for hα2A receptor ([3H]raulwolscine, CHO cell membranes). The protocol: as §1, §2, §3, §4

Where [3] appears, read: [3H]paroxetine 0.5 nM, read-out: h-5HTT pIC50 (converted).
Setting [4] is: [3H]raulwolscine 1 nM, membranes of CHO cells transfected with human α2A receptor, read-out: h-α2A pIC50 (converted).

21 molecules from patent publication US20100105694A1, “SUBSTITUTED PYRAZINONE DERIVATIVES FOR USE AS A MEDICINE” (priority 2006, published 2010) can be followed below.

Structures are written as SMILES. Like-named read-outs stand apart in the source and are kept apart here.

T2 sequence (P31645 whole entry): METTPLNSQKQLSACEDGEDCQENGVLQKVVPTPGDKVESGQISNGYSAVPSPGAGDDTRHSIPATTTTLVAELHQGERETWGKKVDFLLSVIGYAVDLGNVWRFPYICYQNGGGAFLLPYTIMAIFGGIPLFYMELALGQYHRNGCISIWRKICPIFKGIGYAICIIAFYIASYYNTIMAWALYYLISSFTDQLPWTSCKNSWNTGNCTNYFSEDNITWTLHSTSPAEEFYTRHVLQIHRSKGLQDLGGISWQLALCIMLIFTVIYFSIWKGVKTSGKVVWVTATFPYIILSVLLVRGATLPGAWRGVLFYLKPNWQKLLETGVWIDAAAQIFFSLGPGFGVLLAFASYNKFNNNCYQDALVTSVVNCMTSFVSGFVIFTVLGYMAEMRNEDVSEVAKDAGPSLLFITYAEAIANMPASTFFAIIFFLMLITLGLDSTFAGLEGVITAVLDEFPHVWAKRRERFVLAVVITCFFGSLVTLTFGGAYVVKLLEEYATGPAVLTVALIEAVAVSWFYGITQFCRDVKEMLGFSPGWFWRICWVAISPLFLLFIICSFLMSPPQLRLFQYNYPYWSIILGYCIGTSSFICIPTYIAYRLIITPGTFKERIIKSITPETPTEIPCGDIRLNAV

As for `NCc1ccc(Cn2ccnc(NC3CCN(Cc4ccc(-c5ccccc5)cc4)CC3)c2=O)cc1` [Compound 1-1], the results for the IC50 (in experiment [1]; on 5HT-Transporter (setting [3]); in experiment [2] (setting [4])) were 251 nM, 501 nM and 251 nM, respectively.

For `O=c1c(NC2CCN(Cc3ccc(-c4ccccc4)cc3)CC2)nccn1CCN1CCCCC1` [Compound 1-3], the IC50 in experiment [1] is 100 nM; on 5HT-Transporter (setting [3]), 2510 nM; in experiment [2] (setting [4]) it was 501 nM.

`O=C1c2ccccc2C(=O)N1CCCn1ccnc(NC2CCN(Cc3ccc(-c4ccccc4)cc3)CC2)c1=O` [Compound 1-4]: the IC50 in experiment [1] was 126 nM; on 5HT-Transporter (setting [3]), 158 nM; in experiment [2] (setting [4]), 631 nM.

On to `COC(=O)Cn1ccnc(NC2CCN(Cc3ccc(-c4ccccc4)cc3)CC2)c1=O` [Compound 1-5], for which the IC50 in experiment [1] was 316 nM; at 5HT-Transporter (setting [3]) it was 5010 nM; in experiment [2] (setting [4]), 1260 nM.

For the molecule `O=c1c(NC2CCN(Cc3ccc(-c4ccccc4)cc3)CC2)nccn1Cc1ccccc1Br` [Compound 1-6], the results for the IC50 (in experiment [1]; at 5HT-Transporter (setting [3]); in experiment [2] (setting [4])) were 501 nM, 398 nM and 794 nM, respectively.

Regarding `O=c1c(NC2CCN(Cc3ccc(-c4ccccc4)cc3)CC2)nccn1Cc1cccc(Br)c1` [Compound 1-7], the IC50 in experiment [1] is 398 nM; on 5HT-Transporter (setting [3]) it was 1000 nM; in experiment [2] (setting [4]) it was 1000 nM.

For the molecule `O=c1c(NC2CCN(Cc3ccc(-c4ccccc4)cc3)CC2)nccn1Cc1ccc(Br)cc1` [Compound 1-8], the values for the IC50 (in experiment [1]; at 5HT-Transporter (setting [3]); in experiment [2] (setting [4])) were 794 nM, 631 nM and 1000 nM, respectively.

With `O=c1c(NC2CCN(Cc3ccc(-c4ccccc4)cc3)CC2)nccn1CC1CCCCO1` (stereo not drawn) [Compound 1-9], the IC50 in experiment [1] is 631 nM; at 5HT-Transporter (setting [3]) it was 316 nM; in experiment [2] (setting [4]) it was 2000 nM.

`C=CCn1ccnc(N2CCN(Cc3cccc(-c4ccccc4)c3)CC2)c1=O` [Compound 3-4]: the IC50 in experiment [1] is 794 nM; in experiment [2] (setting [4]), 200 nM.

Take `O=c1c(N2CCN(Cc3cccc(-c4ccccc4)c3)CC2)nccn1Cc1ccc2ccccc2c1` [Compound 3-7]: the IC50 is 5010 nM at 5HT-Transporter (setting [3]) and 200 nM in experiment [2] (setting [4]).

With `O=c1c(N2CCN(Cc3cccc(-c4ccccc4)c3)CC2)nccn1Cc1ccco1` [Compound 3-8], the figures for the IC50 in experiment [1] and in experiment [2] (setting [4]) were 316 nM and 79.4 nM, respectively.

As for `COc1ccc(-c2nnc(Cn3ccnc(N4CCN(Cc5cccc(-c6ccccc6)c5)CC4)c3=O)o2)cc1` [Compound 3-10], the IC50 on 5HT-Transporter (setting [3]) was 6310 nM; in experiment [2] (setting [4]), 501 nM.

With `NCc1ccc(Cn2ccnc(NC3CCN(Cc4ccccc4)CC3)c2=O)cc1` [Compound 5-1], the IC50 on 5HT-Transporter (setting [3]) was 7940 nM.

`NCc1ccc(CN(c2nccn(Cc3ccc(CN)cc3)c2=O)C2CCN(Cc3ccccc3)CC2)cc1` [Compound 5-3]: the IC50 at 5HT-Transporter (setting [3]) was > 10000 nM; in experiment [2] (setting [4]), 1000 nM.

For the molecule `O=c1c(NC2CCN(Cc3ccccc3)CC2)nccn1CCN1CCCCC1` [Compound 5-4], the figures for the IC50 (at 5HT-Transporter (setting [3]); in experiment [2] (setting [4])) were > 10000 nM and 3160 nM, respectively.

Turning to `NCCCn1ccnc(NC2CCN(CCc3ccccc3)CC2)c1=O` [Compound 6-1], the IC50 on 5HT-Transporter (h-5HTT pIC50, [3H]paroxetine 0.5 nM) is > 10000 nM; in experiment [2] it was 3980 nM.

In the case of `NCc1ccc(Cn2ccnc(NC3CCN(CCc4ccccc4)CC3)c2=O)cc1` [Compound 6-2], on 5HT-Transporter (setting [3]), the IC50 was 3980 nM.

As to `NCCCn1ccnc(NC2CCN(CC(c3ccccc3)c3ccccc3)CC2)c1=O` [Compound 9-1], the IC50 was 501 nM in experiment [1] and 1000 nM in experiment [2] (setting [4]).

Take `CC(C)(C)OC(=O)NCc1ccc(Cn2ccnc(N3CCN(CCc4ccccc4)CC3)c2=O)cc1` [Compound 10-3]: the IC50 in experiment [1] was 316 nM; in experiment [2] (setting [4]) it was 794 nM.

For `O=C(Cn1ccnc(N2CCN(CCc3ccccc3)CC2)c1=O)c1ccccc1` [Compound 10-7], the IC50 at 5HT-Transporter (setting [3]) is > 10000 nM; in experiment [2] (setting [4]) it was 2000 nM.

On to `O=c1c(N2CCN(Cc3ccccc3)CC2)nccn1Cc1ccc2ccccc2c1` [Compound 10-9], for which the IC50 in experiment [1] is 794 nM; in experiment [2] (setting [4]) it was 126 nM.
